From ChEMBL document CHEMBL1201862, “PubChem BioAssay data set” (2004)
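How tested: cells in 96-well plates exposed to compound for 48 hours at five concentrations. GI50 = concentration required for 50% inhibition of growth.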 The source made the active and inactive calls. No stated cut-off is given here; in the data, active = GI50 up to about 1.1 µM and inactive = higher.

Key:
Test in all cases: NCI tumour cell line growth inhibition, 48 h
DLD-1 = test system: DLD-1
LXFL 529 = test system: LXFL 529
A549 = test system: A549
COLO 205 = test system: COLO 205
SF-295 = test system: SF-295
CCRF-CEM = test system: CCRF-CEM
HOP-62 = test system: HOP-62
OVCAR-3 = test system: OVCAR-3
DMS-114 = test system: DMS-114
HCT-116 = test system: HCT-116
SN12C = test system: SN12C
SK-MEL-28 = test system: SK-MEL-28
XF498 = test system: XF498
TK-10 = test system: TK-10
SW-620 = test system: SW-620
NCI-H226 = test system: NCI-H226
786-0 = test system: 786-0
UACC-257 = test system: UACC-257
A498 = test system: A498
OVCAR-8 = test system: OVCAR-8
UO-31 = test system: UO-31
IGROV-1 = test system: IGROV-1
RPMI-8226 = test system: RPMI-8226
SF-539 = test system: SF-539
KM12 = test system: KM12
K562 = test system: K562
NCI-H23 = test system: NCI-H23
M19-MEL = test system: M19-MEL
LOX IMVI = test system: LOX IMVI
CAKI-1 = test system: CAKI-1
Malme-3M = test system: Malme-3M
OVCAR-5 = test system: OVCAR-5
U-251 = test system: U-251
SK-MEL-5 = test system: SK-MEL-5
HCC 2998 = test system: HCC 2998
ACHN = test system: ACHN
HOP-92 = test system: HOP-92
OVCAR-4 = test system: OVCAR-4
HT-29 = test system: HT-29
HOP-18 = test system: HOP-18
MOLT-4 = test system: MOLT-4
SNB-75 = test system: SNB-75
SNB-19 = test system: SNB-19
SK-OV-3 = test system: SK-OV-3
NCI-H522 = test system: NCI-H522
SR = test system: SR
M14 = test system: M14
SF-268 = test system: SF-268
EKVX = test system: EKVX
SNB-78 = test system: SNB-78
HCT-15 = test system: HCT-15
HL-60 = test system: HL-60
UACC-62 = test system: UACC-62
NCI-H460 = test system: NCI-H460
DMS-273 = test system: DMS-273
RXF 393 = test system: RXF 393
SK-MEL-2 = test system: SK-MEL-2

Measured: GI50

CCOC(=O)NC(=O)c1cn(CCN2CCN(C(=O)CCCCCCCCCCC(=O)N3CCN(CCn4cc(C(=O)NC(=O)OCC)c(=O)[nH]c4=O)CC3)CC2)c(=O)[nH]c1=O
inactive: DLD-1 > 100 µM | LXFL 529 > 100 µM | A549 > 100 µM | COLO 205 > 100 µM | SF-295 36.8 µM | CCRF-CEM > 100 µM | HOP-62 > 100 µM | OVCAR-3 > 100 µM | DMS-114 > 100 µM | HCT-116 > 100 µM | SN12C > 100 µM | SK-MEL-28 > 100 µM | XF498 > 100 µM | TK-10 > 100 µM | SW-620 > 100 µM | NCI-H226 > 100 µM | 786-0 > 100 µM | UACC-257 > 100 µM | A498 > 100 µM | OVCAR-8 > 100 µM | UO-31 > 100 µM | IGROV-1 > 100 µM | RPMI-8226 > 100 µM | SF-539 > 100 µM | KM12 > 100 µM | K562 > 100 µM | NCI-H23 > 100 µM | M19-MEL > 100 µM | LOX IMVI 29.3 µM | CAKI-1 > 100 µM | Malme-3M > 100 µM | OVCAR-5 51.6 µM | U-251 > 100 µM | SK-MEL-5 > 100 µM | HCC 2998 > 100 µM | ACHN > 100 µM | HOP-92 > 100 µM | OVCAR-4 > 100 µM | HT-29 > 100 µM | HOP-18 > 100 µM | MOLT-4 > 100 µM | SNB-75 > 100 µM | SNB-19 > 100 µM | SK-OV-3 > 100 µM | NCI-H522 86.5 µM | SR > 100 µM | M14 > 100 µM | SF-268 > 100 µM

Cc1ccccc1C(CCCO)C(=O)O (configuration not stated)
> 100 µM: HCT-15
inactive: DLD-1 > 100 µM | EKVX > 100 µM | LXFL 529 > 100 µM | A549 > 100 µM | COLO 205 > 100 µM | SF-295 > 100 µM | CCRF-CEM > 100 µM | SNB-78 > 100 µM | HOP-62 > 100 µM | OVCAR-3 > 100 µM | DMS-114 > 100 µM | HCT-116 > 100 µM | SN12C > 100 µM | SK-MEL-28 > 100 µM | XF498 > 100 µM | TK-10 > 100 µM | SW-620 > 100 µM | 786-0 > 100 µM | HL-60 > 100 µM | UACC-257 > 100 µM | A498 > 100 µM | UACC-62 > 100 µM | OVCAR-8 > 100 µM | UO-31 > 100 µM | IGROV-1 > 100 µM | RPMI-8226 > 100 µM | SF-539 > 100 µM | KM12 > 100 µM | NCI-H460 > 100 µM | K562 > 100 µM | NCI-H23 > 100 µM | M19-MEL > 100 µM | LOX IMVI > 100 µM | DMS-273 > 100 µM | CAKI-1 > 100 µM | Malme-3M > 100 µM | OVCAR-5 > 100 µM | U-251 > 100 µM | SK-MEL-5 > 100 µM | RXF 393 > 100 µM | HCC 2998 > 10 µM | ACHN > 100 µM | HOP-92 > 100 µM | OVCAR-4 > 100 µM | HT-29 > 100 µM | SK-MEL-2 > 100 µM | MOLT-4 > 100 µM | SNB-75 > 100 µM | SNB-19 > 100 µM | SK-OV-3 > 100 µM | NCI-H522 > 100 µM | M14 > 100 µM | SF-268 > 100 µM
